From US20240335544A1, “M6PR CELL SURFACE RECEPTOR BINDING COMPOUNDS AND CONJUGATES” (LYCIA THERAPEUTICS, INC., priority 2021, published 2024) come the findings set out here.

Assay [1] concerns the target T1, M6PR (Domains I-9, R&D Systems) (Homo sapiens, UniProt P11717).
T1 construct: with 100 nM M6PR (Domains I-9, R&D Systems) and 1 nM probe; purchased R&D Systems
Description: General M6PR binding assay (fluorescence polarization). The note with it: Table 16F, unconjugated compounds, 100 nM M6PR, 1 nM probe, 2 hr incubation. The procedure:
M6PR binding was measured in black 96-well plates using a fluorescence polarization assay. A fluorescent probe consisting of a reference M6Pn ligand linked to Cy5 was synthesized. Test compounds were resuspended in DMSO and 3-fold serial dilutions were made at 100× final concentrations. Binding reactions were conducted in 100 μl final volume in 20 mM HEPES (pH 7.5) 100 mM NaCl 0.015% Tween-20 1% DMSO with 100 nM M6PR (Domains I-9, R&D Systems) and 1 nM probe. Fluorescence polarization was measured using Xex=620 nm, λem=688 nm on an Envision plate reader (Perkin Elmer) after 2 hr incubation time. Dose responses were conducted in duplicate and normalized to the response with DMSO (high) and 1 μM reference compound (low) on each plate. IC50 values were determined by fitting to 4-parameter curves in GraphPad Prism.
In general terms: Polarisation of emitted light reports the rotation of a fluorescent probe.

Assay [2] relates to Jurkat cells. Put plainly: Uptake of IgE-Alexa488 target by omalizumab conjugates in Jurkat cells. The assay is classed as cell-based. The note with it: for relative cellular uptake activity of IgE-Alexa488, omalizumab conjugates of Table 15A / relative cellular uptake activity of IgE-Alexa488, omalizumab conjugates of Table 15B: 1 hour; for relative cellular uptake activity of IgE-Alexa488, omalizumab conjugates of Table 15A: FIGS. 15-17; for relative cellular uptake activity of IgE-Alexa488, omalizumab conjugates of Table 15B: FIGS. 18-21. The procedure: The omalizumab conjugates of Example 142 were bound to IgE-Alexa488 (prepared according to Example 144), as follows: equal molar ratios of omalizumab (anti-IgE) conjugate and IgE-Alexa488 were added in tissue culture media for 30 minutes at room temperature. The resulting anti-IgE conjugate:IgE antibody-Alexa488 compositions were added to Jurkat cells (100 k cells/50 ul per well, n=2), and Alexa488 fluorescence levels in the cells were measured at 1 hour by flow cytometry. As the fluorescently labelled target (IgE antibody) accumulates in cells, the fluorescence presents a way to measure total intracellular uptake by cells over time.

The target of assay [3] is CI-M6PR (Homo sapiens, UniProt P11717). Description: Human CI-M6PR binding assay (ELISA). Details: purchased R&D 6418-GR-050. Here is the method: Nunc black solid bottom MaxiSorp plates were allowed to incubate overnight at 4° C. coated with 1 μg/mL of recombinant human CI-M6PR protein (R&D, 6418-GR-050) in 50 μL PBS. The next day, coating was decanted and plates were washed 3× with PBS. Wells were blocked with 350 μL of 3% BSA-PBS for 1 hour at room temperature. […] 50 μL of diluted conjugates were added to the plate and allowed to incubate at room temperature for 2 hours. After incubation, solutions in plate were decanted and washed with 350 μL of 0.05% PBS-Tween20 three times, drying the plate each wash on a clean paper towel. 50 μL of peroxidase AffiniPure Mouse Anti-Human IgG (Jackson Immuno, 209-035-088) diluted in 3% BSA-PBS to […] was added to the plate and allowed to incubate for 1 hour at room temperature in the dark. After incubation, solutions in plate were decanted and washed with 350 μL of 0.05% PBS-Tween20 3 times, drying the plate each wash on a clean paper towel. […] 50 μL of QuantaBlu solution was added to wells and allowed to incubate for 5-10 minutes at room temperature. After incubation, plates were read on a Perkin Elmer EnVision using photometric 340 and Umbelliferone 460 filter sets for excitation and emission, respectively. Data analysis and non-linear curve-fitting was performed using GraphPad Prism.
Sequence of CI-M6PR (P11717 41-1365 limits assumed): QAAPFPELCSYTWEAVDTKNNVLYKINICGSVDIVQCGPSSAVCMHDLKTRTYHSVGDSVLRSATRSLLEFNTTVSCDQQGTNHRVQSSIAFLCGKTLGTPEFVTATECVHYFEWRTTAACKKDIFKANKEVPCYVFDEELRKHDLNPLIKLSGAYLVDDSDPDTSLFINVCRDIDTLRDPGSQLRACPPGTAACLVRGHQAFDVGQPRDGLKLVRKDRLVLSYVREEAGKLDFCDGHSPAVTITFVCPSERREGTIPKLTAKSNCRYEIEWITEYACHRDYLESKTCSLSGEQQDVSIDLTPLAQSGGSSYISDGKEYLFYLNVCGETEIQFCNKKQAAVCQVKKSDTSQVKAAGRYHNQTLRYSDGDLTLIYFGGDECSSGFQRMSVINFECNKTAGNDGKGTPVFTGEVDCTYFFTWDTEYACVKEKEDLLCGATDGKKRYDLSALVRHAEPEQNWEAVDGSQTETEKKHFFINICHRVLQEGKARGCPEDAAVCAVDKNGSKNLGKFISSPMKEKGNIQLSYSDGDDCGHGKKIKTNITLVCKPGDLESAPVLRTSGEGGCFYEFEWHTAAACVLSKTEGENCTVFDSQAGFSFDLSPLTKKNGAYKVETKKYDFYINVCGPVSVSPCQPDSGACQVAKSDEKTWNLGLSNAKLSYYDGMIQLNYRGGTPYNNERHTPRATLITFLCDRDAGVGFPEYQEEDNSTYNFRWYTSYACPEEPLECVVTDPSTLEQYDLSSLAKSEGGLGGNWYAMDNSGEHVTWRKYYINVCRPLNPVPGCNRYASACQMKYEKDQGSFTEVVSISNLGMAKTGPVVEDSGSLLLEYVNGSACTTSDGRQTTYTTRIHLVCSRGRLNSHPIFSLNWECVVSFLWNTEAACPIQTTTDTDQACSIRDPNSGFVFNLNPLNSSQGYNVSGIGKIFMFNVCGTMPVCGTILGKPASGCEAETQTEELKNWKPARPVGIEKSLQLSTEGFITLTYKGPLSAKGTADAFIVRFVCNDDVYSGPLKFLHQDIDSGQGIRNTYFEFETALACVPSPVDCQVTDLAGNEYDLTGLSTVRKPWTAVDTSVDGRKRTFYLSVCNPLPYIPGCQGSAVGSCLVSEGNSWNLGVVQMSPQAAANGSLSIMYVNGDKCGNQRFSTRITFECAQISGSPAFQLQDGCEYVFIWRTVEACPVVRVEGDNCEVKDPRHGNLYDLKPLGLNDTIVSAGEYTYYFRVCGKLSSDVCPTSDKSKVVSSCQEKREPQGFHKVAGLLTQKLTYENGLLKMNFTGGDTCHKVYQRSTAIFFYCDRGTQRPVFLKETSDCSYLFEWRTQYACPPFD
A general note: An ELISA detects its analyte on a solid surface through an enzyme-linked reagent.

Where [4] appears, read: Table 16D, conjugate, m average loading DAR 2, read-out: EC50 in M6PR binding assay for conjugates of compounds of varying multivalency.

“Also recorded” adds a separate entry of the source. Read-outs that look alike come from different tables or passages of the source. A value given as a limit tells only on which side of the number the result lay.

T1 sequence (P11717 41-1365 limits assumed): as above

The term IC50 denotes the concentration that gives 50% inhibition. Read a low IC50 as higher potency. In the case of `O=C(NCCCCc1cn(-c2cccnc2)nn1)Nc1ccc(C[C@H]2O[C@H](CCP(=O)(O)O)[C@@H](O)[C@H](O)[C@@H]2O)cc1` [Compound P5], the half-maximal inhibitory concentration (IC50) in assay [1] was in the range of 100 to 500 nM.

Consider `O=C(NCCCCc1cn(CCOCCOCCOCCOCCC(=O)Oc2c(F)c(F)cc(F)c2F)nn1)Nc1ccc(O[C@H]2O[C@H](CCP(=O)(O)O)[C@@H](O)[C@H](O)[C@@H]2O)cc1` [Compound 558], for which, in assay [2], the “relative cellular uptake activity of IgE-Alexa488, omalizumab conjugates of Table 15A” value (shortened to “relative cellular uptake activity … of Table 15A”) was “active in this assay, although less active in comparison to the corresponding analog containing a phosphonate hydrophilic head group (529 (I-38))”. For the compound `C#CCCCCNC(=O)Nc1ccc(O[C@H]2O[C@H](CCP(=O)(O)O)[C@@H](O)[C@H](O)[C@@H]2O)cc1` [Compound 38C], the IC50 in assay [1] is 100 to 500 nM. In general, EC50 refers to the concentration that produces a half-maximal response. As to `O=C(CCCn1cc(CCCCNC(=S)Nc2ccc(O[C@H]3O[C@H](CCP(=O)(O)O)[C@@H](O)[C@H](O)[C@@H]3O)cc2)nn1)N[C@@H](CCCCn1cc(CCCCNC(=S)Nc2ccc(O[C@H]3O[C@H](CCP(=O)(O)O)[C@@H](O)[C@H](O)[C@@H]3O)cc2)nn1)C(=O)N[C@@H](CCCCn1cc(CCCCNC(=S)Nc2ccc(O[C@H]3O[C@H](CCP(=O)(O)O)[C@@H](O)[C@H](O)[C@@H]3O)cc2)nn1)C(=O)N[C@@H](CCCCn1cc(CCCCNC(=S)Nc2ccc(O[C@H]3O[C@H](CCP(=O)(O)O)[C@@H](O)[C@H](O)[C@@H]3O)cc2)nn1)C(=O)NCCOCCOCCOCCOCCC(=O)Oc1c(F)c(F)c(F)c(F)c1F` [763 (I-52)], the 50% effective concentration (EC50) in assay [3] (setting [4]) was found to be 0.3 nM.

`CC(=O)N[C@@H](CCCCn1cc(CCCCNC(=O)Nc2ccc(O[C@H]3O[C@H](CCP(=O)(O)O)[C@@H](O)[C@H](O)[C@@H]3O)cc2)nn1)C(=O)NCCOCCOCCOCCOCCC(=O)O` [Compound 771] displayed an IC50 in assay [1] of 100 to 500 nM. As to `CO[C@H]1OC(c2cn(CCOCCOCCOCCOCCOCCOCCC(=O)Oc3c(F)c(F)c(F)c(F)c3F)nn2)[C@@H](O)[C@H](O)[C@@H]1O[C@H]1O[C@H](CCP(=O)(O)O)[C@@H](O)[C@H](O)[C@@H]1O` (some centres unmarked) [Compound 660], in assay [2], the “relative cellular uptake activity of IgE-Alexa488, omalizumab conjugates of Table 15B” value (from here on “relative cellular uptake activity … of Table 15B”) was “potent and comparable activity to conjugate of a conjugate of compound 520 (I-7)”. For `CC(=O)N[C@@H](CCCCn1cc(CCCCNC(=O)Nc2ccc(O[C@H]3O[C@H](CCP(=O)(O)O)[C@@H](O)[C@H](O)[C@@H]3O)cc2)nn1)C(=O)N[C@@H](CCCCn1cc(CCCCNC(=O)Nc2ccc(O[C@H]3O[C@H](CCP(=O)(O)O)[C@@H](O)[C@H](O)[C@@H]3O)cc2)nn1)C(=O)NCCOCCOCCOCCOCCC(=O)N[C@@H](CCCCn1cc(CCCCNC(=O)Nc2ccc(O[C@H]3O[C@H](CCP(=O)(O)O)[C@@H](O)[C@H](O)[C@@H]3O)cc2)nn1)C(=O)N[C@@H](CCCCn1cc(CCCCNC(=O)Nc2ccc(O[C@H]3O[C@H](CCP(=O)(O)O)[C@@H](O)[C@H](O)[C@@H]3O)cc2)nn1)C(=O)NCCOCCOCCOCCOCCC(=O)O` [Compound 770], the IC50 in assay [1] was at most 50 nM. Still for that read-out and setting: then `C#CCCCC(=O)Nc1ccc2cc(O[C@H]3O[C@H](CCP(=O)(O)O)[C@@H](O)[C@H](O)[C@@H]3O)ccc2c1` [Compound I-68, (2-((2R,3S,4S,5S,6R)-6-((6-(hex-5-ynamido)naphthalen-2-yl)oxy)-3,4,5-trihydroxytetrahydro-2H-pyran-2-yl)ethyl)phosphonic acid], with 100 to 500 nM.

With `Cc1cc(NC(=O)NCCCCc2cn(CCOCCOCCOCCOCCC(=O)Oc3c(F)c(F)c(F)c(F)c3F)nn2)ccc1O[C@H]1O[C@H](CCP(=O)(O)O)[C@@H](O)[C@H](O)[C@@H]1O` [545 (I-87)], in assay [3] (Table 16C, cetuximab (anti-EGFR) conjugate, average loading DAR 9.2, read-out: EC50 in M6PR binding assay), the EC50 turned out to be 0.3 nM. For `O=C(CCCn1cc(CCCCNC(=S)Nc2ccc(O[C@H]3O[C@H](CCP(=O)(O)O)[C@@H](O)[C@H](O)[C@@H]3O)cc2)nn1)N[C@@H](CCCCn1cc(CCCCNC(=S)Nc2ccc(O[C@H]3O[C@H](CCP(=O)(O)O)[C@@H](O)[C@H](O)[C@@H]3O)cc2)nn1)C(=O)N[C@@H](CCCCn1cc(CCCCNC(=S)Nc2ccc(O[C@H]3O[C@H](CCP(=O)(O)O)[C@@H](O)[C@H](O)[C@@H]3O)cc2)nn1)C(=O)N[C@@H](CCCCn1cc(CCCCNC(=S)Nc2ccc(O[C@H]3O[C@H](CCP(=O)(O)O)[C@@H](O)[C@H](O)[C@@H]3O)cc2)nn1)C(=O)NCCOCCOCCOCCOCCC(=O)Oc1c(F)c(F)c(F)c(F)c1F` [Compound I-52], the EC50 in assay [3] (Table 16B, antibody conjugate, average loading DAR 6, read-out: EC50 in M6PR binding assay) was determined as 0.28 nM. Regarding `O=C(CCOCCOCCOCCOCCOCCOCCOCCOCc1cn([C@H]2O[C@H](CCP(=O)(O)O)[C@@H](O)[C@H](O)[C@@H]2O)nn1)ON1C(=O)CCC1=O` [Compound 664], the “relative cellular uptake activity … of Table 15B” value in assay [2] is on record as “minimal activity”. Regarding `O=C(CCOCCOCCOCCN(CCOCCOCCOCCn1cc(CCCCNC(=S)Nc2ccc(O[C@H]3O[C@H](CCP(=O)(O)O)[C@@H](O)[C@H](O)[C@@H]3O)cc2)nn1)CCOCCOCCOCCn1cc(CCCCNC(=S)Nc2ccc(O[C@H]3O[C@H](CCP(=O)(O)O)[C@@H](O)[C@H](O)[C@@H]3O)cc2)nn1)Oc1c(F)c(F)c(F)c(F)c1F` [704 (I-40)], the half-maximal effective concentration (EC50) in assay [3] (setting [4]) came to 0.66 nM; in assay [3] (Table 16D, conjugate, m average loading DAR 7, read-out: EC50 in M6PR binding assay for conjugates of compounds of varying multivalency), 0.2 nM.

Take `CO[C@H]1O[C@H](COCCCCCc2cn(CCOCCOCCOCCOCCC(=O)Oc3c(F)c(F)c(F)c(F)c3F)nn2)[C@@H](O)[C@H](O)[C@@H]1O[C@H]1O[C@H](CCP(=O)(O)O)[C@@H](O)[C@H](O)[C@@H]1O` [Compound 659]: the “relative cellular uptake activity … of Table 15B” value in assay [2] was “potent and comparable activity to conjugate of a conjugate of compound 520 (I-7)”.

In the case of `O=C(CCOCCOCCOCCOCCn1cc(CCCCNC(=S)Nc2ccc(O[C@H]3O[C@H](CC(C(=O)O)C(=O)O)[C@@H](O)[C@H](O)[C@@H]3O)cc2)nn1)Oc1c(F)c(F)c(F)c(F)c1F` [Compound 559], the EC50 in assay [3] (Table 16E, conjugate, m average DAR 9, read-out: EC50 in M6PR binding assay for conjugates of monovalent compounds of varying linker length and loading) stood at 3.36 nM.

Consider `O=C(CCOCCOCCOCCN(CCOCCOCCOCCn1cc(CCO[C@H]2O[C@H](CCP(=O)(O)O)[C@@H](O)[C@H](O)[C@@H]2O)nn1)CCOCCOCCOCCn1cc(CCO[C@H]2O[C@H](CCP(=O)(O)O)[C@@H](O)[C@H](O)[C@@H]2O)nn1)Oc1c(F)c(F)c(F)c(F)c1F` [Compound 716], for which, in assay [2], the “relative cellular uptake activity … of Table 15A” value is given as “inferior uptake to 520 (I-7) with m=8”. As for `O=C(CCOCCOCCOCCOCCn1cc(CCCCNC(=S)Nc2ccc(O[C@H]3O[C@H](CCS(=O)(=O)O)[C@@H](O)[C@H](O)[C@@H]3O)cc2)nn1)Oc1c(F)c(F)c(F)c(F)c1F` [556 (1-104)], in assay [2], the “relative cellular uptake activity … of Table 15A” value is reported as “low activity”. For the compound `O=C(NCCCCc1cn(CCOCCOCCOCCOCCC(=O)Oc2c(F)c(F)c(F)c(F)c2F)nn1)Nc1ccc(S[C@H]2O[C@H](CCP(=O)(O)O)[C@@H](O)[C@H](O)[C@@H]2O)cc1` [Compound 552], the “relative cellular uptake activity … of Table 15B” value in assay [2] is given as “comparable activity to an 0-glycoside (520 (I-7) with m=8); also recorded: more activity when at m=6 loading versus m=4 loading”. Further, the “relative cellular uptake activity of IgE-Alexa488, omalizumab conjugates of Table 19” value in assay [2] (FIG. 23, entire dose response range) is “comparable by less activity that the conjugate of α-O-glycoside (529)”. Turning to `O=C(NCCCCc1cn(CCOCCOCCOCCOCCC(=O)Oc2c(F)c(F)c(F)c(F)c2F)nn1)Nc1ccc(O[C@H]2C[C@H](CCP(=O)(O)O)[C@@H](O)[C@H](O)[C@@H]2O)cc1` [Compound 665], the “relative cellular uptake activity … of Table 15A” value in assay [2] was “low activity”.
